From patent US9751886B2, “4-amino-6-phenyl-6,7-dihydro[1,2,3]triazolo[1,5-A]pyrazine derivatives as inhibitors of beta-secretase (BACE)” (Janssen Pharmaceutica NV, priority 2013, dated 2017)

Experiments:
[1] = target: T1, recombinant BACE1 protein (Homo sapiens (Human), UniProt P56817); experiment: BACE1 Biochemical FRET based assay - Method 1; conditions: 1 μg/ml BACE1, 10 μM substrate, 120 min, pH 5.0
Excerpt: (§1) This assay is a Fluorescence Resonance Energy Transfer Assay (FRET) based assay. The substrate for this assay is an APP derived 13 amino acids peptide that contains the ‘Swedish’ Lys-Met/Asn-Leu mutation of the amyloid precursor protein (APP) beta-secretase cleavage site. This substrate also contains two fluorophores: (7-methoxycoumarin-4-yl) acetic acid (Mca) is a fluorescent donor with excitation wavelength at 320 nm and emission at 405 nm and 2,4-Dinitrophenyl (Dnp) is a proprietary quencher acceptor. […] Upon cleavage by BACE1, the fluorophore Mca is separated from the quenching group Dnp, restoring the full fluorescence yield of the donor. The increase in fluorescence is linearly related to the rate of proteolysis.
Briefly in a 384-well format recombinant BACE1 protein in a final concentration of 1 μg/ml is incubated for 120 minutes at room temperature with […] substrate in incubation buffer (40 mM Citrate buffer pH 5.0, 0.04% PEG, 4% DMSO) in the absence or presence of compound. Next the amount of proteolysis is directly measured by fluorescence measurement at T=0 and T=120 (excitation at 320 nm and emission at 405 nm). Results are expressed in RFU (Relative Fluorescence Units), as difference between T120 and TO.

[2] = target: T1, recombinant BACE1 protein; experiment: BACE1 Biochemical FRET based assay - Method 2; conditions: 0.04 μg/ml BACE1, 20 μM substrate, 450 min, pH 5.0
Excerpt: as §1
Briefly in a 384-well format recombinant BACE1 protein in a final concentration of 0.04 μg/ml is incubated for 450 minutes at room temperature with 20 μM substrate in incubation buffer (50 mM Citrate buffer pH 5.0, 0.05% PEG) in the presence of compound or DMSO. Next the amount of proteolysis is directly measured by fluorescence measurement (excitation at 320 nm and emission at 405 nm) at different incubation times (0, 30, 60, 90, 120 and 450 min). For every experiment a time curve (every 30 min between 0 min and 120 min) is used to determine the time where we find the lowest basal signal of the high control. The signal at this time (Tx) is used to subtract from the signal at 450 min. Results are expressed in RFU, as difference between T450 and Tx.

[3] = system: Abeta 1-42 secreted by human neuroblastoma SKNBE2 cells expressing wild type hAPP695; experiment: BACE1 cellular αLisa assay in SKNBE2 cells, Abeta 1-42; format: cell-based; conditions: 18 hours incubation
Procedure: (§2) In two αLisa assays the levels of Abeta total and Abeta 1-42 produced and secreted into the medium of human neuroblastoma SKNBE2 cells are quantified. The assay is based on the human neuroblastoma SKNBE2 expressing the wild type Amyloid Precursor Protein (hAPP695). The compounds are diluted and added to these cells, incubated for 18 hours and then measurements of Abeta 1-42 and Abeta total are taken. Abeta total and Abeta 1-42 are measured by sandwich αLisa. αLisa is a sandwich assay using biotinylated antibody AbN/25 attached to streptavidin coated beads and antibody Ab4G8 or cAb42/26 conjugated acceptor beads for the detection of Abeta total and Abeta 1-42 respectively. In the presence of Abeta total or Abeta 1-42, the beads come into close proximity. The excitation of the donor beads provokes the release of singlet oxygen molecules that trigger a cascade of energy transfer in the acceptor beads, resulting in light emission.

[4] = system: Abeta total secreted by human neuroblastoma SKNBE2 cells expressing wild type hAPP695; experiment: BACE1 cellular αLisa assay in SKNBE2 cells, Abeta total; format: cell-based; conditions: 18 hours incubation
Procedure: as §2

[5] = target: recombinant BACE2 protein (Homo sapiens (Human), UniProt Q9Y5Z0); experiment: BACE2 Biochemical FRET based assay; conditions: 0.4 μg/ml BACE2, 10 μM substrate, 450 min, pH 5.0
Sequence of recombinant BACE2 protein (Q9Y5Z0 63-518): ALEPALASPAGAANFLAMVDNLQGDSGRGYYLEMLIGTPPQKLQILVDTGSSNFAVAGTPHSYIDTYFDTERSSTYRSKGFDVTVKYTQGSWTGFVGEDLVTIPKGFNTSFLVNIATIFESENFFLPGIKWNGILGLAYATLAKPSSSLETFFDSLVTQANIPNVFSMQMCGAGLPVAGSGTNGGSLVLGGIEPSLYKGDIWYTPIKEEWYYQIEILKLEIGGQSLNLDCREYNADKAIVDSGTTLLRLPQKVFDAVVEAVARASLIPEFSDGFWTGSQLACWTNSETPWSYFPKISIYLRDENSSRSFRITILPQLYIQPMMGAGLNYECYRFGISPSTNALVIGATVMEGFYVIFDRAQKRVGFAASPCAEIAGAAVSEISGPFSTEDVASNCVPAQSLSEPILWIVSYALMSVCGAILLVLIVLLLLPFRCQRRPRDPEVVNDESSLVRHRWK
Excerpt: as §1, with “assay” for “assay is an APP derived 13 amino acids peptide that”, “the beta-secretase,” for “BACE1,”
Briefly in a 384-well format recombinant BACE2 protein in a final concentration of 0.4 μg/ml is incubated for 450 minutes at room temperature with 10 μM substrate in incubation buffer (50 mM Citrate buffer pH 5.0, 0.05% PEG, no DMSO) in the absence or presence of compound. Next the amount of proteolysis is directly measured by fluorescence measurement at T=0 and T=450 (excitation at 320 nm and emission at 405 nm). Results are expressed in RFU (Relative Fluorescence Units), as difference between T450 and TO.

T1 sequence (P56817 46-501): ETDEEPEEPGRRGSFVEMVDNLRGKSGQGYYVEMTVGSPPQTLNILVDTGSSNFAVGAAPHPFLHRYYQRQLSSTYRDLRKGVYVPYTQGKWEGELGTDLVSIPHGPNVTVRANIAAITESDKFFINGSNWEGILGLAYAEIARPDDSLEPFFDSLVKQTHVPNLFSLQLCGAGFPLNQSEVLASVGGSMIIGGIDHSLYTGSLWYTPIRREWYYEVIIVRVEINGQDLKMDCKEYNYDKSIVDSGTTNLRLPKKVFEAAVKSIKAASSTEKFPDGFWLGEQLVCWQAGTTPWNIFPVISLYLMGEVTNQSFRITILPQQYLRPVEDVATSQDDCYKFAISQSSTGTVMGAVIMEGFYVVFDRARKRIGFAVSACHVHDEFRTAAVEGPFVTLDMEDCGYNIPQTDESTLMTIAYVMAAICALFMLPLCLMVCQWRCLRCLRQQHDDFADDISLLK

| Compound | IC50 ([1]; read-out: BACE1 Biochemical FRET based assay - Method 1 pIC50 (converted)) | BACE1 Biochemical FRET based assay - Method 2 pIC50 [2] | IC50 ([3]; Homo sapiens, read-out: Cellular αLisa assay in SKNBE2 cells Abeta 42 pIC50 (converted)) | IC50 ([4]; Homo sapiens, read-out: Cellular αLisa assay in SKNBE2 cells Abetatotal pIC50 (converted)) | BACE2 Biochemical FRET based assay pIC50 [5] | BACE1 Biochemical FRET based assay - Method 1 pIC50 [1] | Cellular αLisa assay in SKNBE2 cells Abeta 42 pIC50 [3] | Cellular αLisa assay in SKNBE2 cells Abetatotal pIC50 [4] |
| --- | --- | --- | --- | --- | --- | --- | --- | --- |
| COc1cnc(C(=O)Nc2ccc(F)c([C@]3(C)Cn4nncc4C(N)=N3)c2)cn1 [Compound 3, N-{3-[(6R)-4-Amino-6-methyl-6,7-dihydro[1,2,3]triazolo[1,5-a]pyrazin-6-yl]-4-fluorophenyl}-5-methoxypyrazine-2-carboxamide] | 2.04 nM | 8.69 | 1.82 nM | 1.62 nM | 7.81 |  |  |  |
| C[C@@]1(c2cc(NC(=O)c3ccc(Cl)cn3)ccc2F)Cn2nncc2C(N)=N1 [Compound 4] |  | 8.75 |  |  | 8.56 | 8.76 | 8.77 | 8.88 |
